Measurements reported in US10940139B2, “Compounds that interact with the Ras superfamily for the treatment of cancers, inflammatory diseases, rasopathies, and fibrotic disease” (Shy Therapeutics LLC, priority 2017, dated 2021).

Columns and labels:
Rho-A = Rho-A (Homo sapiens (Human), UniProt P61586); assay: Rho inhibition assay (labeled GTP); format: binding; conditions: read-out: Rho-A % Inh.
[1] = biological target: KRas G12D/Q61H double mutant (Homo sapiens (Human), UniProt P01116, G12D/Q61H); assay: Ras GTP binding domain inhibition assay (labeled GTP); conditions: at 20 μM; read-out: KRas G12D Q61H % Inh.
KRas G12D/Q61H double mutant, sequence (P01116-2 other isoform, or with tags, fused parts or gaps G12D/Q61H): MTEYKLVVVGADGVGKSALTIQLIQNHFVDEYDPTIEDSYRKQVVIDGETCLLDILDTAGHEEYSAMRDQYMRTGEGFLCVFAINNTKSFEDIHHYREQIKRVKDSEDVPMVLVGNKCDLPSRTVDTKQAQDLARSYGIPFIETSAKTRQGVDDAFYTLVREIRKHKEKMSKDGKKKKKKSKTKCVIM
Procedure, shortened: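 Labelled-GTP binding: plate-captured His-KRas protein was pre-exposed to compound for 3 h at room temperature (single 20 μM point or dilution series, 1% DMSO, Tris pH 7.5/MgCl2/DTT buffer). Cy3- or Cy5-GTP was then added for 45 min. Washed wells were read for retained fluorescence to give inhibition or IC50.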

Rac-1 = Rac-1 (Homo sapiens (Human), UniProt P63000); assay: Rac inhibition assay (labeled GTP); format: binding; conditions: read-out: Rac-1 % Inh.
[2] = tested on: MAPK phosphorylation in PANC-1 pancreatic cancer cell line; assay: MAPK cell-based phosphorylation assay (cell-direct ELISA, EGF stimulation); conditions: Homo sapiens, * = tested at 10 μM
Procedure, shortened: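 Cell-direct ELISA measured phospho-MAPK, with fluorescence read at 595 nm from AmpliFlu Red. Before fixation, PANC-1 cells starved overnight received 6 hours of compound (30 μM single dose or serial dilutions, 0.3% DMSO, 37° C), followed by 1.5 ng/ml EGF for 15 min.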

KRas G12D mutant protein = KRas G12D mutant protein (Homo sapiens (Human), UniProt P01116, G12D); assay: Ras GTP binding domain inhibition assay (labeled GTP); conditions: at 20 μM; read-out: KRas G12D % Inh.
KRas G12D mutant protein, sequence (P01116-2 other isoform, or with tags, fused parts or gaps G12D): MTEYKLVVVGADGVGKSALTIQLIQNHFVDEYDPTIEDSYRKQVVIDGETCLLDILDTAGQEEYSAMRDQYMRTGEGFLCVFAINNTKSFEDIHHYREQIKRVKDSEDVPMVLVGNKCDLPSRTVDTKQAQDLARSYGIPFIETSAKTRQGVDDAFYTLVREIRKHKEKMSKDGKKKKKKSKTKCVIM
Protocol: The following method was developed as specific assay for KRas G12D mutant protein.
Buffer-I: • 50 mM Tris, pH 7.5 • 150 mM NaCl (optional) • 1 mM MgCl2 • 1 mM DTT. • KRas G12D mutant protein was expressed as a His-tagged protein. Purified His-KRas G12D protein was diluted in buffer-I to a final concentration of 3-10 μg/ml. • 200 μl of the diluted His-KRas G12D protein was added to a nickel coated 96 well plate and incubated overnight at 4° C. • The next day, wells were washed 3× in 200 μl of Buffer-I. • Then 200 μl of Buffer-I were added to each well in the presence of 1% DMSO. • Tested compounds were added to the protein-coated wells at a concentration of 20 μM, and incubated for 3 hours at room temperature. While performing IC50 measurements a serial dilution of all tested concentrations was prepared.
Then 22 μl of Cy3-GTP or Cy5-GTP was added to each well. The labeled GTP was incubated for 45 min. at room temperature. • Following GTP incubation, wells were washed 3× in Buffer-I, and 200 μl of Buffer-I were added to each well. • Following washes, the amount of bound labeled-GTP was measured with an Eppendorf AF2200 plate reader.

Rho-A, sequence (P61586 whole entry, the tested form may be a part): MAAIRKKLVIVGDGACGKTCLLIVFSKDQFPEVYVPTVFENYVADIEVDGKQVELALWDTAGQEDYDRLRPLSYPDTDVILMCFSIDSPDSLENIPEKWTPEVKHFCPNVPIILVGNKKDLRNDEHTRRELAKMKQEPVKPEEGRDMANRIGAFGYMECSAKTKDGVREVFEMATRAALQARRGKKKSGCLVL

| Structure (SMILES) | inhibition at 20 µM [1] | inhibition at 10 µM [2] | also measured |
| --- | --- | --- | --- |
| COc1ccnc(-c2nc(O)c3c(CN)csc3n2)c1 | 0% | – | inhibition at 20 µM (Rho-A): 25 to 50%; inhibition at 20 µM (Rac-1): 51 to 75% |
| COCCNc1nc(-c2nccn2C)nc2sc(C3CCOCC3)c(-c3ccccc3)c12 [drawing 1350] | – | 51 to 75% | – |
| COCCNc1nc(-c2cccc(N)n2)nc2sc(-c3ccccc3)c(-c3ccccc3)c12 [drawing 1351] | – | 51 to 75% | – |
| Cn1ccnc1-c1nc(O)c2sc(-c3ccccc3)c(-c3cccc(C(F)(F)F)c3)c2n1 [drawing 1352] | – | 0% | – |
| COc1ccc(-c2c(-c3ccccc3)sc3c(O)nc(-c4nccn4C)nc23)cn1 [drawing 1353] | – | 51 to 75% | – |
| Cc1sc2c(O)nc(-c3nccn3C)nc2c1-c1ccccc1 [drawing 1354] | – | 0% | – |
| Cn1ccnc1-c1nc(O)c2sc(-c3ccccc3)c(-c3ccccc3Cl)c2n1 [drawing 1355] | – | 51 to 75% | – |
| COCCNc1nc(-c2nccn2C)nc2sc(-c3ccccc3)c(-c3ccncc3)c12 [drawing 1356] | – | 25 to 50% | – |
| COCCNc1nc(-c2nccn2C)nc2sc(-c3ccc(OC)cc3)c(-c3ccccc3)c12 [drawing 1357] | – | 51 to 75% | – |
| Cn1ccnc1-c1nc(O)c2scc(-c3cccc(C(F)(F)F)c3)c2n1 [drawing 1358] | – | 25 to 50% | – |
| Cc1sc2c(O)nc(-c3nccn3C)nc2c1-c1cccc(C(F)(F)F)c1 [drawing 1359] | – | 1 to 25% | – |
| Cc1sc2c(O)nc(-c3nccn3C)nc2c1-c1ccc(OCC(C)C)nc1 [drawing 1360] | – | 25 to 50% | – |
| COc1ccc(-c2c(C)sc3c(O)nc(-c4nccn4C)nc23)cn1 [drawing 1361] | – | 25 to 50% | – |
| Cc1sc2c(O)nc(-c3nccn3C)nc2c1-c1ccccc1Cl [drawing 1362] | – | 1 to 25% | – |
| Cn1cnc(-c2nc(O)c3scc(-c4cccc(C(F)(F)F)c4)c3n2)c1 [drawing 1364] | – | 1 to 25% | – |
| CC(C)COc1ccc(-c2csc3c(O)nc(-c4cn(C)cn4)nc23)cn1 [drawing 1365] | – | 1 to 25% | – |
| Cn1cnc(-c2nc(O)c3scc(-c4cccc(OC(F)(F)F)c4)c3n2)c1 [drawing 1366] | – | 1 to 25% | – |
| Oc1nc(-c2ccncn2)nc2c(-c3cccc(C(F)(F)F)c3)csc12 [drawing 1367] | – | 1 to 25% | – |
| Oc1nc(-c2ncccn2)nc2c(-c3cccc(C(F)(F)F)c3)csc12 [drawing 1368] | – | 1 to 25% | – |
| CC(C)Oc1ccc(-c2csc3c(O)nc(-c4nccn4C)nc23)cc1F [drawing 1369] | – | 25 to 50% | – |
| Cc1sc2c(O)nc(-c3nccn3C)nc2c1-c1ccc(OC(C)C)c(F)c1 [drawing 1370] | – | 25 to 50% | – |
| CC(C)Oc1ccc(-c2c(-c3ccccc3)sc3c(O)nc(-c4nccn4C)nc23)cc1F [drawing 1371] | – | 25 to 50% | – |
| CC(C)COc1ccc(-c2csc3c(O)nc(-c4nccn4C)nc23)cn1 [drawing 1372] | – | 25 to 50% | – |
| COc1ccc(-c2csc3c(O)nc(-c4nccn4C)nc23)cn1 [drawing 1373] | – | 51 to 75% | – |
| Cn1ccnc1-c1nc(O)c2scc(-c3ccccc3)c2n1 [drawing 1374] | – | 76 to 100% | – |
| Cn1ccnc1-c1nc(O)c2scc(-c3ccccc3Cl)c2n1 [drawing 1375] | – | 25 to 50% | – |

| Structure (SMILES) | inhibition at 20 µM [1] | inhibition at 10 µM [2] | also measured |
| --- | --- | --- | --- |
| Cn1ccnc1-c1nc(O)c2scc(-c3ccc(F)cc3F)c2n1 [drawing 1376] | – | 0% | – |
| Cn1ccnc1-c1nc(O)c2scc(-c3cccc(Cl)c3)c2n1 [drawing 1377] | – | 25 to 50% | – |
| COC(C)(C)c1ccc(-c2csc3c(O)nc(-c4nccn4C)nc23)cc1 [drawing 1378] | – | 25 to 50% | – |
| Cn1ccnc1-c1nc(O)c2scc(-c3ccc(C(C)(C)C)cc3)c2n1 [drawing 1379] | – | 25 to 50% | – |
| COCCNc1nc(-c2ccccn2)nc2sc(-c3ccccc3)c(-c3ccccn3)c12 [drawing 1380] | – | 0% | – |
| Cc1sc2c(O)nc(-c3nccn3C)nc2c1-c1ccc(F)cc1F [drawing 1381] | – | 0% | – |
| COCCNc1nc(-c2nccn2C)nc2sc(-c3ccccc3)c(-c3ccccn3)c12 [drawing 1382] | – | 51 to 75% | – |
| Oc1nc(-c2ccccn2)nc2c(-c3ccccc3)csc12 [drawing 3625] | 25 to 50% | – | inhibition at 20 µM (Rho-A): 51 to 75%; inhibition at 20 µM (Rac-1): 51 to 75% |
| Cc1ccccc1N1CCN(C(=O)c2csc3c(O)nc(-c4ccccn4)nc23)CC1 [drawing 3628] | 25 to 50% | – | inhibition at 20 µM (Rho-A): 76 to 100%; inhibition at 20 µM (Rac-1): 76 to 100% |
| O=C(c1csc2c(O)nc(-c3ccccn3)nc12)N1CCN(Cc2cccc(O)c2)CC1 [drawing 3629] | 76 to 100% | – | inhibition at 20 µM (Rho-A): 76 to 100%; inhibition at 20 µM (Rac-1): 76 to 100% |
| O=C(c1csc2c(O)nc(-c3ccccn3)nc12)N1CCNC(c2ccc(O)cc2)C1 (centres unmarked) [drawing 3697] | 76 to 100% | – | inhibition at 20 µM (KRas G12D mutant protein): 51 to 75% |
| CN(C)Cc1ccc(-c2csc3c(O)nc(-c4ccccn4)nc23)cc1F [drawing 3717] | 76 to 100% | – | inhibition at 20 µM (KRas G12D mutant protein): 76 to 100% |
| COCc1ccc(-c2csc3c(O)nc(-c4ccccn4)nc23)cc1F [drawing 3718] | 51 to 75% | – | inhibition at 20 µM (Rho-A): 76 to 100%; inhibition at 20 µM (KRas G12D mutant protein): 51 to 75% |
| O=C(c1csc2c(O)nc(-c3ccccn3)nc12)N1CCNC(c2cn[nH]c2)C1 (centres unmarked) [drawing 3730] | 51 to 75% | – | inhibition at 20 µM (Rho-A): 76 to 100%; inhibition at 20 µM (KRas G12D mutant protein): 25 to 50% |
| CC(C)COc1ccc(-c2csc3c(O)nc(-c4ccccn4)nc23)cn1 [drawing 3749] | 51 to 75% | – | inhibition at 20 µM (Rho-A): 51 to 75%; inhibition at 20 µM (KRas G12D mutant protein): 51 to 75% |
| Oc1nc(-c2ccccn2)nc2c(-c3ccccc3C(F)F)csc12 [drawing 3755] | 51 to 75% | – | inhibition at 20 µM (KRas G12D mutant protein): 51 to 75% |
| COc1cc(-c2csc3c(O)nc(-c4ccccn4)nc23)cnc1C(F)(F)F [drawing 3756] | 51 to 75% | – | inhibition at 20 µM (KRas G12D mutant protein): 51 to 75%; inhibition at 20 µM (Rac-1): 51 to 75% |
| Oc1nc(-c2ccccn2)nc2c(-c3ccc4c(c3)CCCO4)csc12 [drawing 3774] | 25 to 50% | – | inhibition at 20 µM (KRas G12D mutant protein): 51 to 75%; inhibition at 20 µM (Rac-1): 25 to 50% |
| Oc1nc(-c2ccccn2)nc2c(-c3cc(C(F)(F)F)ccc3F)csc12 [drawing 3783] | 1 to 25% | – | inhibition at 20 µM (Rac-1): 25 to 50% |
| Oc1nc(-c2ccccn2)nc2c(-c3cncc(C(F)(F)F)c3)csc12 [drawing 3784] | 1 to 25% | – | inhibition at 20 µM (Rho-A): 25 to 50% |
| CCC(C)c1csc2c(OC)nc(-c3ccccn3)nc12 (centres unmarked) [drawing 3790] | 51 to 75% | – | inhibition at 20 µM (Rho-A): 51 to 75%; inhibition at 20 µM (KRas G12D mutant protein): 25 to 50% |
| Cc1c(C(=O)N2CCN(c3ccccc3)CC2)sc2c(O)nc(-c3ccccn3)nc12 [drawing 3802] | 51 to 75% | – | inhibition at 20 µM (Rac-1): 51 to 75% |
| CN(C)CCOc1cccc(-c2csc3c(O)nc(-c4ccccn4)nc23)c1 [drawing 3811] | 76 to 100% | – | inhibition at 20 µM (KRas G12D mutant protein): 76 to 100% |
| Cc1sc2c(O)nc(-c3ccccn3)nc2c1C(=O)N1CCN(Cc2cccc(O)c2)CC1 [drawing 3829] | 51 to 75% | – | inhibition at 20 µM (KRas G12D mutant protein): 25 to 50% |
| Oc1nc(-c2ccccn2)nc2c(C3CC3)csc12 [drawing 3836] | 25 to 50% | – | inhibition at 20 µM (KRas G12D mutant protein): 51 to 75%; inhibition at 20 µM (Rac-1): 51 to 75% |
| COCCNc1nc(-c2nccn2C)nc2sc(-c3ccccc3)c(-c3ccccc3)c12 [drawing 3853] | 51 to 75% | – | inhibition at 20 µM (KRas G12D mutant protein): 76 to 100% |
